Reference: BindingDB's records for doi:10.1021/jm00008a007 (1995)

Each molecule was assayed against Histamine H1 receptor (Cavia porcellus, UniProt P31389) (assay: H1-Histamine receptor agonism on Guinea pig aorta was evaluated (SEM 0.03-0.18)).
Histamine H1 receptor, sequence (P31389 whole entry): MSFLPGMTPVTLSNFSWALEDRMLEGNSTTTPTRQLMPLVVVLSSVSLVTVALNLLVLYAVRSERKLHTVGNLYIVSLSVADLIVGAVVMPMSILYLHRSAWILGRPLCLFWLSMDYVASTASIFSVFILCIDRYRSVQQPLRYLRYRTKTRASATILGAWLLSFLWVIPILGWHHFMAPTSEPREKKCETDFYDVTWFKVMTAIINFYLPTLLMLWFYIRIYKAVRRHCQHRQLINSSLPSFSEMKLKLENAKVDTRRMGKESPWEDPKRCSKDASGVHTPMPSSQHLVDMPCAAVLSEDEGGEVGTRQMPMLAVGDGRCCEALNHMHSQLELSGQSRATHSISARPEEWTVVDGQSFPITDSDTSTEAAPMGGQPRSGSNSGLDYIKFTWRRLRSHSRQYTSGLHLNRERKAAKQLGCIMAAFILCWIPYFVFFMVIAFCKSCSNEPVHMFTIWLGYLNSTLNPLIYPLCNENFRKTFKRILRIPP
Work on `NCCc1c[nH]c(Cc2ccsc2)n1` yielded an EC50 of 128 µM. `NCCc1c[nH]c(-c2cccs2)n1` gave an EC50 of 9.99 µM. With `NCCc1c[nH]c(-c2ccccc2)n1` the EC50 was 6.3 µM. `NCCc1c[nH]c(-c2ccco2)n1` showed an EC50 of 5.37 µM. `NCCc1cnc(-c2cccc(C(F)(F)F)c2)[nH]1` gave an EC50 of 1.28 µM. `NCCc1c[nH]c(Cc2ccccc2Cl)n1` gave an EC50 of 575 µM. `NCCc1c[nH]c(Cc2cccc(Cl)c2)n1` gave an EC50 of 288 µM. For `NCCc1c[nH]c(Cc2cccs2)n1`, the EC50 was 147 µM. `NCCc1c[nH]c(-c2csc(Br)c2)n1` was tested, and the EC50 was 11.4 µM. For `NCCc1c[nH]c(-c2ccsc2)n1`, the EC50 was 6.16 µM. Molecule `NCCc1nccs1` [2-(2-aminoethyl)thiazole] has an EC50 of 6.76 µM. For `NCCc1c[nH]c(-c2cccc(I)c2)n1`, the EC50 was 2.57 µM. Work on `NCCc1c[nH]c(-c2ccc[nH]2)n1` yielded an EC50 of 10.2 µM.
